Ends that are not written are not given here. Peptide text beside a SMILES is read from it.
Experiments:
[1] = Methylene blue assay of HO• production (Fenton reaction); settings: pH 4, H2O2, same Fe content (36 µg Fe3+), UV-Vis every 5 min over 6 h
Procedure: MB assays were used to measure the HO^• production efficacy of IGPNs. IGPNs (36 µg Fe^3+) were mixed with MB (1.5 mL, 10 µg L^−1) and H2O2 (1 mL), and H2O was added to a final volume of 3 mL. The absorbance at 664 nm was recorded with a Cary 3500 UV–Vis Spectrophotometer every 5 min over 6 h.
To verify the hypothesized Fenton reaction of IGPNs, H2O2 was used as a source of hydroxyl radicals (HO^•) and to simulate the tumor microenvironment. The generation of HO^• and degradation of methylene blue (MB) upon exposure to H2O2 and different samples adjusted to the same Fe content (IGPNs or FeCl3 solution) was monitored by UV–Vis spectrometry. At pH 4 (Figure 7A), the decrease of absorbance at 664 nm was accelerated in the presence of Fe-A4**, FePVP-A4**, or Fe^3+. At the favorable acidic pH, no differences in reaction rates were observed between IGPNs and Fe^3+, since the content of Fe^3+ is obviously sufficient to drive the reaction under these conditions. In contrast, at pH 7.4, the absorbance decline was clearly more pronounced in case of IGPNs (Figure 7B). This phenomenon could be explained by an accelerated conversion of Fe^3+ to Fe^2+ in the presence of GA.

HeLa cells = test: Cell viability (CellTiter-Glo assay), HeLa; format: cell-based, human; settings: 10 μM, 72 h
Procedure: The CellTiter-Glo® Luminescent Cell Viability Assay was performed to determine the viability of HeLa or N2a cells after treatment with IGPNs or the individual components. One day prior to the treatments, HeLa or N2a cells were seeded into 96-well plates at a density of 5000 cells/well. On the next day, the medium in each well was replaced with 90 μL of fresh medium, and 10 μL of nanoparticles or control solutions (free peptides, Fe, FePVP) was added to each well corresponding to the specified final concentrations of the peptide or Fe^3+, respectively. The supernatant was removed after 72 h incubation, and 25 µL of medium as well as 25 µL of CellTiter-Glo reagent were added to each well. The plate was gently agitated for 30 min at RT, and the luminescence signal (relative light units, RLU) was recorded by a Centro LB 960 plate reader luminometer (Berthold Technologies, Bad Wildbad, Germany). The relative cell viability (in percentage) was calculated relative to control wells treated with HBG buffer as ([RLU] test/[RLU] control) × 100%. All experiments were performed in triplicate.

Compound | decrease of methylene blue absorbance at 664 nm (HO• generation) at pH 4 [1] | cytotoxicity / tolerability in words (HeLa cells)
O.O.O.O.O.O.[Cl-].[Cl-].[Cl-].[Fe+3] [Fe^3+, iron (III) chloride hexahydrate] | accelerated | –
NCCCC[C@H](NC(=O)[C@@H]1CCCN1C(=O)[C@@H](N)CCC(N)=O)C(=O)O [SIO] (H-Gln-Pro-Lys-OH) | – | not able to mediate significant cytotoxicity
AVPIAQK [AVP] | – | not able to mediate significant cytotoxicity
